Laboratory results reported in ChEMBL document CHEMBL1201862, “PubChem BioAssay data set” (2004).
Calls of active or inactive are those of the source.

Columns and labels:
[1] = molecular target: T1, Heat shock factor protein 1 (Mus musculus, UniProt P38532); test: enhancement of HSF1-driven luciferase signal – cell-based, NIH3T3, luminescence, dose retest, confirmation (AID 435004); type: functional;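 further: stress induced by proteasome inhibitor MG132 added 30 min after compound; luciferase reporter driven by HSF1 response element in NIH3T3 cells; actives raise luminescence as potentiators of the MG132 stress response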
T1 sequence (P38532 whole entry): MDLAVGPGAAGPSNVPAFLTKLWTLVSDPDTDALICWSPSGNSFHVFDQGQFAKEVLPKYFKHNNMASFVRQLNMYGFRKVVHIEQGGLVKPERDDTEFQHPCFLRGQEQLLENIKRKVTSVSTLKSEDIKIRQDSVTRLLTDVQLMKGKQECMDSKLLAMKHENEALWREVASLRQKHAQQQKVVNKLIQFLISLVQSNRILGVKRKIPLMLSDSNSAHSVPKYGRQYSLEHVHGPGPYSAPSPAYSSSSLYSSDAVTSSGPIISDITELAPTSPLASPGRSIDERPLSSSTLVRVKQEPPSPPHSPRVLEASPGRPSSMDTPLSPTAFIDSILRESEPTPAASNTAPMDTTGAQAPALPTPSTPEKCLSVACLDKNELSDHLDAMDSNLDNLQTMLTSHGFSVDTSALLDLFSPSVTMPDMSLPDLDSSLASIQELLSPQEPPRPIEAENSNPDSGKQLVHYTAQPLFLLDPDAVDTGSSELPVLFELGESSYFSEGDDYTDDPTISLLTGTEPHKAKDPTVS

[2] = molecular target: T2, Cysteine protease ATG4B (Homo sapiens, UniProt Q9Y4P1); type: functional;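 further: Fluorescence-based dose-response confirmation assay measuring inhibition of ATG4B activity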
T2 sequence (Q9Y4P1 whole entry): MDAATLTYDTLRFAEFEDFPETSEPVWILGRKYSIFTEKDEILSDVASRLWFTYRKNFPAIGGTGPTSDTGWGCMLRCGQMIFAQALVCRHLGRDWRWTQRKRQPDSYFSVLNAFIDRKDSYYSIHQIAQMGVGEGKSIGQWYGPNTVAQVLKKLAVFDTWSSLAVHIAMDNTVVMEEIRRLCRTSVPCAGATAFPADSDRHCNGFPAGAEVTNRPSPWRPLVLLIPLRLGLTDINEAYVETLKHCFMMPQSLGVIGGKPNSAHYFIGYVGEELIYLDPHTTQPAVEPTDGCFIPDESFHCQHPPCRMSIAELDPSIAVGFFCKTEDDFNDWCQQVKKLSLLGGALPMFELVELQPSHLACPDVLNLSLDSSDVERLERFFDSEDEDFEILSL

[3] = molecular target: Phospholipase A2 (Homo sapiens, UniProt P04054); type: functional;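 further: confirmatory dose-response counterscreen on phospholipase A2, testing hits that came from an ultra-high-throughput screen for ATG4B inhibitors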
[4] = molecular target: T3, Endoribonuclease toxin MazF (Escherichia coli K-12, UniProt P0AE70); test: substrate-only fluorescence increase artefacts – biochemical, single-stranded RNase substrate, counter-screen for MazEF activator project, dose response (AID 588502); type: functional
T3 sequence (P0AE70 whole entry): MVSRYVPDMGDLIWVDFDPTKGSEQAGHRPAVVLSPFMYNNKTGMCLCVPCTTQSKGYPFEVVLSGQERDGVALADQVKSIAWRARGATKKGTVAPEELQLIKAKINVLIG

[5] = molecular target: T3, Endoribonuclease toxin MazF; test: activation of MazEF endoribonuclease cleavage – biochemical, fluorescence, single-stranded RNA substrate, uHTS hits, dose response (AID 588481); type: functional
[6] = molecular target: Cytochrome P450 2C9 (Homo sapiens, UniProt P11712)
[7] = molecular target: Cytochrome P450 2D6 (Homo sapiens, UniProt P10635);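 further: CYP2D6 member of a cytochrome P450 panel assay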
[8] = molecular target: T4, Short transient receptor potential channel 4 (Mus musculus, UniProt Q9QUQ5); test: calcium entry via TRPC4 opening agents – cell-based, HEK293 TRPC4/mu-opioid, Fluo-4 calcium, dose response (AID 434937); type: functional
T4 sequence (Q9QUQ5 whole entry): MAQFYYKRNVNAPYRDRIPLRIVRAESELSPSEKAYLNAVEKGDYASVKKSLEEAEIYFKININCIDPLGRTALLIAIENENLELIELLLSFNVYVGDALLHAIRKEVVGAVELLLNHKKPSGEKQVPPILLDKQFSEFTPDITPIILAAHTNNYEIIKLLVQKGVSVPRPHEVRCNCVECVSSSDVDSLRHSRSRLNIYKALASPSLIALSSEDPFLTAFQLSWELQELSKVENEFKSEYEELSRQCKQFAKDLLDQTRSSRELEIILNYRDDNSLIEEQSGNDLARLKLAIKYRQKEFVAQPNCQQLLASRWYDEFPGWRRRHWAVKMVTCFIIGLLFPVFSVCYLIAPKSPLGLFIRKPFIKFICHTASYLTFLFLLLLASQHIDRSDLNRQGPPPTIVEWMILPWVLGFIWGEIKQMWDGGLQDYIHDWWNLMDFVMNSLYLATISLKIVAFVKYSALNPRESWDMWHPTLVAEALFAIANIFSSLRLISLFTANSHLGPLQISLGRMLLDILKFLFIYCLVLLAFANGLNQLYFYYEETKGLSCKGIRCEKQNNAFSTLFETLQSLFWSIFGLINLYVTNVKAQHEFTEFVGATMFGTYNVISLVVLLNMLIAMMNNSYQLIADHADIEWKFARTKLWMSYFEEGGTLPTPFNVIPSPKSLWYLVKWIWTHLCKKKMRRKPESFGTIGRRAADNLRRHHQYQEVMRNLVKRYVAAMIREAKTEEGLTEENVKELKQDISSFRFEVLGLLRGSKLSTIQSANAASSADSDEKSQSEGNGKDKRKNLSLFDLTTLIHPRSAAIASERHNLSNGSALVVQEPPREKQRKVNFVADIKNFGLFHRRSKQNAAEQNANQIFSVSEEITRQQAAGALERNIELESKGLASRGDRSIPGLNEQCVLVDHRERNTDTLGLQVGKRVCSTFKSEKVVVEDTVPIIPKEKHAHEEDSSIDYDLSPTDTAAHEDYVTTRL

[9] = molecular target: Delta-type opioid receptor (Homo sapiens, UniProt P41143); test: Counterscreen for agonists of heterodimerization of the mu 1 (OPRM1) and delta 1 (OPRD1) opioid receptors: Luminescence-based cell-based high throughput dose response assay to identify agonists of OPRD1 homodimerization. [Related pubchem assays (depositor defined):AID504326, AID504355, AID504692, AID504904, AID504905]; type: functional
[10] = molecular target: 5-hydroxytryptamine receptor 5A (Homo sapiens, UniProt P47898); test: Counterscreen for agonists of OPRM1-OPRD1 heterodimerization: luminescence-based cell-based high throughput dose response assay to identify agonists of 5-hydroxytryptamine (serotonin) 5A receptor (HTR5A). [Related pubchem assays (depositor defined):AID504326, AID504355, AID504692, AID504904, AID504905]; type: functional
[11] = molecular target: Cytochrome P450 2C19 (Homo sapiens, UniProt P33261); test: Cytochrome panel assay with activity outcomes. Panel member name: p450-cyp2c19 Compounds with AC50 equal or less than 10 uM are considered active; type: functional; details: read-out: AC50
[12] = molecular target: Mu-type opioid receptor (Homo sapiens, UniProt P35372); test: Counterscreen for agonists of heterodimerization of the mu 1 (OPRM1) and delta 1 (OPRD1) opioid receptors: Luminescence-based cell-based high throughput dose response assay to identify agonists of OPRM1 homodimerization.; type: functional;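 further: U2OS cells expressing OPRM1 and beta-arrestin as split beta-galactosidase partners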
[13] = molecular target: T5, Type-1 angiotensin II receptor (Homo sapiens, UniProt P30556); test: antagonism of angiotensin II type 1 receptor – cell-based, uHTS hits, selectivity assay for APJ receptor antagonist project, dose response (AID 463214); type: functional;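 further: antagonist potency against angiotensin II stimulated AT1 response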
T5 sequence (P30556 whole entry): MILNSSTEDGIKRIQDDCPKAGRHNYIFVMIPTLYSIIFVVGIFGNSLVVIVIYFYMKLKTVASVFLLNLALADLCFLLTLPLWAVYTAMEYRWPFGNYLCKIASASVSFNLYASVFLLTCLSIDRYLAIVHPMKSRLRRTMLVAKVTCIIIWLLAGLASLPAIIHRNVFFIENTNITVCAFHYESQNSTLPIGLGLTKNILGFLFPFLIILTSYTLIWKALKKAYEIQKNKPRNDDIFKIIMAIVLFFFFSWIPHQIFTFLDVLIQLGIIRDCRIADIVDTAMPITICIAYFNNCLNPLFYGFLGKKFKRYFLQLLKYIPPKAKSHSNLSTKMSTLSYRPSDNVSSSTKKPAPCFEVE

[14] = molecular target: T6, DNA topoisomerase (Yersinia pestis, UniProt A0A2S9PM60); test: Yersinia topoisomerase I cleavage product accumulation – biochemical, cherry-pick, dose response (AID 588525)
T6 sequence (A0A2S9PM60 whole entry): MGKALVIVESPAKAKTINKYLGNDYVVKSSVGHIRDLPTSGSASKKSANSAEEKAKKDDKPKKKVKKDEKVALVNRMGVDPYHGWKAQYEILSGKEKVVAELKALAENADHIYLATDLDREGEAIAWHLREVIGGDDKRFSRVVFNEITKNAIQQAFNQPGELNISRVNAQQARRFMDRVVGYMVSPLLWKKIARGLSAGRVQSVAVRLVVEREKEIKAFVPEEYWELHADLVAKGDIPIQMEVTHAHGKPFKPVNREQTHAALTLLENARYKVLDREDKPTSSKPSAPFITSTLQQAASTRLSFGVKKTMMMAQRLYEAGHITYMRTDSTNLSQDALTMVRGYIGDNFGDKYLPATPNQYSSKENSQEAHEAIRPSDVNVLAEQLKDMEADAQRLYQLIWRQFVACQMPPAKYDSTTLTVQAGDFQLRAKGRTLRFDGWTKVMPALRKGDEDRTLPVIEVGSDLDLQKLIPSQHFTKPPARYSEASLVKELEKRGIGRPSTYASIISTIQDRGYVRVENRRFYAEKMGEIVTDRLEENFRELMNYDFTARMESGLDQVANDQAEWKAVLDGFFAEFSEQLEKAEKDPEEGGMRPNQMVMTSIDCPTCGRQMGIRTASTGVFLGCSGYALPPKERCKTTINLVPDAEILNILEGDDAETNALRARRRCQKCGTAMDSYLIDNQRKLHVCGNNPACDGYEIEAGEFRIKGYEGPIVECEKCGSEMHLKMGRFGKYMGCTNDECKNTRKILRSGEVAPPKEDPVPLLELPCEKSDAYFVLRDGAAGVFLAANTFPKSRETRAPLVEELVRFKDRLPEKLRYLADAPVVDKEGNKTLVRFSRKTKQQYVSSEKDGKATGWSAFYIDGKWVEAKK

[15] = molecular target: Beta-galactosidase (Escherichia coli, UniProt Q8VNN2); test: PubChem AID 485352; type: functional
[16] = viability of uninfected HEp-2 cells – cell-based, HTS, cytotoxicity control for RSV inhibitor project, dose response (AID 2410); type: functional; details: human respiratory syncytial virus
[17] = molecular target: T7, Zinc finger protein mex-5 (Caenorhabditis elegans, UniProt Q9XUB2); test: potency of MEX-5 RNA-binding blockers – biochemical, C. elegans, fluorescence polarization, dose response (AID 1960)
T7 sequence (Q9XUB2 whole entry): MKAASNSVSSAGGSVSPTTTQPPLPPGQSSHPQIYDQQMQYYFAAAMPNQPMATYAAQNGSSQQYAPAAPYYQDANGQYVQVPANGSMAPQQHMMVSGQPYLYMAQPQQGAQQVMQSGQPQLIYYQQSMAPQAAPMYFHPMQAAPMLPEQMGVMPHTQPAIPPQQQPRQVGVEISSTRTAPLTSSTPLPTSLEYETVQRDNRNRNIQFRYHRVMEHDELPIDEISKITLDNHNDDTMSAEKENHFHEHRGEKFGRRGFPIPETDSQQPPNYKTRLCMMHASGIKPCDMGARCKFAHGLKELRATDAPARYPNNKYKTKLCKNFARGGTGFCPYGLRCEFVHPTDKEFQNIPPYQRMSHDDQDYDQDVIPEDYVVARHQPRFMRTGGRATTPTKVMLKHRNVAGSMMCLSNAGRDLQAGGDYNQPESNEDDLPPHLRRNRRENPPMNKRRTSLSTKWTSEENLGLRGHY

[18] = molecular target: T8, RNA-binding protein pos-1 (Caenorhabditis elegans, UniProt G5EF15); test: disruptors of C. elegans POS-1 RNA interaction – biochemical, fluorescence polarization, dose response (AID 1964);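 further: purified POS-1 fused to maltose binding protein made in E. coli; potency of compounds blocking POS-1 binding to fluorescent RNA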
T8 sequence (G5EF15 whole entry): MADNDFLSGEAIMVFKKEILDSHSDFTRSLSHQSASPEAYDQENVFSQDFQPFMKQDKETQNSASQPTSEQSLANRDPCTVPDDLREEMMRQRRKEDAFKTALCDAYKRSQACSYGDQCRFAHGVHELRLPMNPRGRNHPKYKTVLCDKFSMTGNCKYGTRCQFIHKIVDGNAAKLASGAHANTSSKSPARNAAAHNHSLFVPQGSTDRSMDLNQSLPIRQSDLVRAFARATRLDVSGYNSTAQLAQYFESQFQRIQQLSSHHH

Sequence of Phospholipase A2 (P04054 whole entry): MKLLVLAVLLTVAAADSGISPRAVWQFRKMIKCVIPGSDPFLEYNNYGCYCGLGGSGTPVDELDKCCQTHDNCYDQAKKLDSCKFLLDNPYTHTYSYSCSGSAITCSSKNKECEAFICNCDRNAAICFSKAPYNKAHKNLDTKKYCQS
Sequence of Beta-galactosidase (Q8VNN2 whole entry): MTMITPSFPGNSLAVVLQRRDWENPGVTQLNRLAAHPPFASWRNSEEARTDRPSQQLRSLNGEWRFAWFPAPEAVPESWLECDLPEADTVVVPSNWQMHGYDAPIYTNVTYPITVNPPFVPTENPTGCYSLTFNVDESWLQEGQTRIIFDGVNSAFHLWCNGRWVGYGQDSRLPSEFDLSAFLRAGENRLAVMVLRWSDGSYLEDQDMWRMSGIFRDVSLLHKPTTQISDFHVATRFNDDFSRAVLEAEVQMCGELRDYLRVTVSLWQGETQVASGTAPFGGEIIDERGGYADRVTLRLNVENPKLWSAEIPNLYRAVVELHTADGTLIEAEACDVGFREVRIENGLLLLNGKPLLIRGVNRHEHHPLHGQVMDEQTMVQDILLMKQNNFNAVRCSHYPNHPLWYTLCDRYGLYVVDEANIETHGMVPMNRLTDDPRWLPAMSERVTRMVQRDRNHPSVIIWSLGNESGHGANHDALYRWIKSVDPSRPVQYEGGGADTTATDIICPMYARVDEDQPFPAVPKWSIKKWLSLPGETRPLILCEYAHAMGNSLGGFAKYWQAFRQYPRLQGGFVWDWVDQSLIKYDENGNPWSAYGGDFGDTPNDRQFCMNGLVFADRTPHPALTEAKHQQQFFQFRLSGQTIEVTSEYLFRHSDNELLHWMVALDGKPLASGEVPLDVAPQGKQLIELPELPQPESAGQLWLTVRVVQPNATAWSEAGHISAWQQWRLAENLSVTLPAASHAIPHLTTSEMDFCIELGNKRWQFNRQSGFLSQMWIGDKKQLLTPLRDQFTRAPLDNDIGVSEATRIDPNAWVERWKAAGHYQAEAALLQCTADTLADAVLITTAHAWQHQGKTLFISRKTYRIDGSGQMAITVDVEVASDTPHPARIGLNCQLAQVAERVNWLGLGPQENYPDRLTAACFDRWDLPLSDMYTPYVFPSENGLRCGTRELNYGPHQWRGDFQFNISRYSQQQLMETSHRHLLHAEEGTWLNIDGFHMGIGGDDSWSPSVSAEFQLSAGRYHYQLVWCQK
Sequence of Cytochrome P450 2D6 (P10635 whole entry): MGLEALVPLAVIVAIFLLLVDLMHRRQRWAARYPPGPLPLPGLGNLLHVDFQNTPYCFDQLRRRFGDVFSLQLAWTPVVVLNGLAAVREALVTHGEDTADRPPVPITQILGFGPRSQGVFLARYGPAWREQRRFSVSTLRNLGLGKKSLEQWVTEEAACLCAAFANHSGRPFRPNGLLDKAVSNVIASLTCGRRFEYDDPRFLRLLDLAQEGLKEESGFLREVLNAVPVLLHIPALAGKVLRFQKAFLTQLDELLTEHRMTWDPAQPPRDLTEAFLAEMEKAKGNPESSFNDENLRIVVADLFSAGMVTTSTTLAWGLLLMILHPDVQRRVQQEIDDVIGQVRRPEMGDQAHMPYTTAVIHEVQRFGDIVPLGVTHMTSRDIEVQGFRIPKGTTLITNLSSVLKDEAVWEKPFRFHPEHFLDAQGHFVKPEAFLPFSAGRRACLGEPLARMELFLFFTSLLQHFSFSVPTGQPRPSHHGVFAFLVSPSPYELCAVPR
Sequence of Mu-type opioid receptor (P35372 whole entry): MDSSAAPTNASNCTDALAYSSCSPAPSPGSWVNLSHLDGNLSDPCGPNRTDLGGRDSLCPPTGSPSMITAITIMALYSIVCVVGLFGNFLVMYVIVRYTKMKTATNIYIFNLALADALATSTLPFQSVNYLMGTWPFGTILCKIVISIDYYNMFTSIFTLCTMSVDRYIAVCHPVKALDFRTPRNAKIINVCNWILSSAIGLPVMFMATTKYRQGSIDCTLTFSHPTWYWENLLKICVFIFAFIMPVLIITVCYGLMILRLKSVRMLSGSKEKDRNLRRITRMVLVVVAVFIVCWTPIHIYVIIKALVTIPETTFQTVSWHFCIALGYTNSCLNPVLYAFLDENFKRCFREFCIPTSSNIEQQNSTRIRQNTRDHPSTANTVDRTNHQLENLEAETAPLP
Sequence of Cytochrome P450 2C9 (P11712 whole entry): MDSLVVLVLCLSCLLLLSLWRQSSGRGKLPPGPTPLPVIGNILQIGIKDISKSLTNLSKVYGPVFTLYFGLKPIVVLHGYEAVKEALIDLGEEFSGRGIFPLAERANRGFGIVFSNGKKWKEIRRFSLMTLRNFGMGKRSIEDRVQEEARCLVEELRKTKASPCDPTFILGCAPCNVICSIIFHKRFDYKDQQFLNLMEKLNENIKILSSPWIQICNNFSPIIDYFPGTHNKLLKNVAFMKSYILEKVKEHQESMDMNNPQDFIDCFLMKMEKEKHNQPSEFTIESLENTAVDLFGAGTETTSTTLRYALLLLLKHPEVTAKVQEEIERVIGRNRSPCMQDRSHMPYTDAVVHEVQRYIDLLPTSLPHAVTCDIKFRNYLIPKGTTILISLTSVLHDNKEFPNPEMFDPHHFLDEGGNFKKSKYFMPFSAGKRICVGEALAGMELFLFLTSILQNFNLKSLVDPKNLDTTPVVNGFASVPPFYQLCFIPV
Sequence of Delta-type opioid receptor (P41143 whole entry): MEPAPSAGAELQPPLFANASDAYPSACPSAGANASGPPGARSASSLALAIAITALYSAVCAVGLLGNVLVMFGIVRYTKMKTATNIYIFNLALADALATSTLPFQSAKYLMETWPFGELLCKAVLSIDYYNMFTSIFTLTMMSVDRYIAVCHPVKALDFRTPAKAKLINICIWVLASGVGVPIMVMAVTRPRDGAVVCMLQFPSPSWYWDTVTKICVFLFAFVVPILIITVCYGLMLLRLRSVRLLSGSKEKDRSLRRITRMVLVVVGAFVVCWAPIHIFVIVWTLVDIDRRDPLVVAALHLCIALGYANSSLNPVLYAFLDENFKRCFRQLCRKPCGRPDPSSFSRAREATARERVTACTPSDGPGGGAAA
Sequence of Cytochrome P450 2C19 (P33261 whole entry): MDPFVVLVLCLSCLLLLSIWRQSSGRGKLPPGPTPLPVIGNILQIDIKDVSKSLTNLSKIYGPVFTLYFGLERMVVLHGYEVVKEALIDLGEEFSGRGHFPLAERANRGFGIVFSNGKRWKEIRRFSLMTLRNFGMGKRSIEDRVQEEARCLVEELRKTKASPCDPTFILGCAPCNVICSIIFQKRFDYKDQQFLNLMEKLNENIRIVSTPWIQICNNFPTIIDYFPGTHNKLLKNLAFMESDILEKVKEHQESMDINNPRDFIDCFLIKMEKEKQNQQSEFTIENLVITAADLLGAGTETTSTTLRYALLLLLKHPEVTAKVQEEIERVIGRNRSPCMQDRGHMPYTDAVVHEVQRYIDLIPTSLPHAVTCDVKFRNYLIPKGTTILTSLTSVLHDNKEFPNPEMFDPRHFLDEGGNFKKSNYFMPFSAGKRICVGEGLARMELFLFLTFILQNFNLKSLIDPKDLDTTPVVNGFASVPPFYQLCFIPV
Sequence of 5-hydroxytryptamine receptor 5A (P47898 whole entry): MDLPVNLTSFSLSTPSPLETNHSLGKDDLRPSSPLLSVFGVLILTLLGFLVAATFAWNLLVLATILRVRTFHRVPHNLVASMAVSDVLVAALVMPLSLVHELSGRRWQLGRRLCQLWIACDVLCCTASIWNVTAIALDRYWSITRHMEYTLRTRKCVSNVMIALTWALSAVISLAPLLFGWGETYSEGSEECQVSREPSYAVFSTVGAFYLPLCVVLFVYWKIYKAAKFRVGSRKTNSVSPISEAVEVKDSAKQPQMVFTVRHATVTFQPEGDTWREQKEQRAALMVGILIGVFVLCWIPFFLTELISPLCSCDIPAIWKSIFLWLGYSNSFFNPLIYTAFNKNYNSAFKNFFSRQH

For `NC(=O)c1ccc(C(F)(F)F)n(Cc2cccc(Cl)c2)c1=O`, the EC50 [1] was > 260 µM (inactive), the IC50 [2] was 26.3 µM (inactive) and the IC50 [3] was 3.93 µM (active).

In the case of `N#Cc1ccc(-c2cccnc2)nc1SCC(=O)c1ccccc1`, the EC50 [4] is reported as 35.9 µM (inactive) and the EC50 [5] is reported as 23.3 µM (inactive).

For `CN(C)C(CNC(=O)NC1CCCCC1)c1cccnc1` (configuration not stated), the AC50 [6] was 0.398 µM (inconclusive), the AC50 [7] was 31.6 µM (inconclusive) and the EC50 [8] was 0.06 µM (active). For the same compound, the EC50 [9] was > 92.5 µM (inactive), the EC50 [10] was > 92.5 µM (inactive) and the AC50 [11] was 25.1 µM (inconclusive). The EC50 [12] was > 92.5 µM (inactive).

For `Cc1ccc(C2=C/C(=C/c3cccs3)C(=O)O2)cc1`, the EC50 [4] was 28.2 µM (inactive) and the EC50 [5] was > 99 µM (inactive).

With `O=C(c1ccc(-n2c(SCc3cc(F)ccc3F)nc3ccccc3c2=O)cc1)N1CCOCC1` the IC50 [2] was 8.7 µM (active) and the IC50 [3] was 11.7 µM (active).

In the case of `Cc1ccc(C(=O)CNc2cccc(Cl)c2)cc1`, the IC50 [13] is reported as 9.87 µM (active), the AC50 [14] is reported as 21.7 µM (active) and the EC50 [15] is reported as > 40 µM (inactive).

For `O=C1CN(C(=O)CSc2nc3cc(Cl)ccc3c(=O)n2Cc2ccccc2)c2ccccc2N1`, the CC50 [16] was 46.4 µM (active) and the AC50 [14] was 9.89 µM (active).

In the case of `O=C(O)c1ccc(C[n+]2c(-c3ccccc3)csc2Nc2ccccc2)cc1`, the IC50 [2] is reported as 15.1 µM (active) and the IC50 [3] is reported as > 80 µM (inactive).

In the case of `COc1ccc(/C=C/c2nc3sc4c(c3c(=O)o2)CCC4)cc1`, the EC50 [17] is reported as 125 µM (inconclusive), the EC50 [4] is reported as > 99 µM (inactive) and the EC50 [18] is reported as 6.97 µM (inconclusive). The EC50 [5] was 46.6 µM (inactive).
